Reference: patent EP2321300B1, “CHLOROPHYLL CATABOLITES” (Universität Innsbruck, priority 2008, dated 2010)

System: Autoxidation von Linolensäure
Experiment: Antioxidant test: inhibition of hydroperoxide formation in radical-chain autoxidation of linoleic acid (after Stocker et al.), AIBN as radical starter, UV/Vis at 234 nm or HPLC
Type: biochemical
Details: for IC50: Autoxidation of Linolensäure in the presence of air, b23 room temperature (37°C, 0,15 M Linolsäure, 2 mM AIBN, 6 % (v/v) Methanol), read-out: Konzentration c0,5 (Rate der Peroxidbildung auf die Hälfte reduziert)
From the text: Stocker et al. verwendeten zur Quantifizierung der antioxidativen Wirkung des Hämabbauproduktes Bilirubin ein einfaches Testsystem. Die essentielle Fettsäure Linolsäure, eine zweifach ungesättigte Fettsäure, ist sehr empfindlich gegenüber einer Oxidation durch freie Radikale. Derartige Oxidationen können in Form von Kettenreaktionen z.B. in Zellmembranen großflächige Schäden herbeiführen. In vitro wurde dieser "oxidative Stress" durch den Einsatz einer Azoverbindung (Radikalstarter) simuliert. Derartige Azoverbindungen bilden ständig, abhängig von der Temperatur durch Abspaltung von Stickstoff (N2) Kohlenstoffradikale, die wiederum mit den ungesättigten Bindungen der Fettsäuren reagieren können. Es bilden sich Fettsäureradikale die ihrerseits wiederum mit Sauerstoff reagieren. Das führt zur Bildung von Fettsäurehydroperoxiden, die wegen ihrer besonderen Absorptionseigenschaften in UV-Bereich (234 nm) spektroskopisch nachweisbar sind. Abhängig von der Konzentration des Radikalbildners steigt also mit der Zeit die Anzahl der Fettsäurehydroperoxidmoleküle an. Setzt man einen antioxidativ wirksamen Stoff zu, können Radikale abgefangen werden, und die Bildung der Hydroperoxide wird verlangsamt.
Das Ergebnis dieser Untersuchungen zeigt die Figur 8, in der die zeitliche Abhängigkeit der Zunahme oxidierter Linolsäure bei unterschiedlichen Konzentrationen der Antioxidantien Bilirubin bzw. NCC-1 aufgetragen ist.
Die Aktivität des natürlichen und weniger polaren Cj-YCC-2 als Antioxidans wurde in Lösung mittels Standardexperimenten, die unter anderem auch in der WO 2007/030848 beschrieben sind, getestet unter Verwendung der Autoxidation von Linolensäure in der Anwesenheit von Luft und bei Raumtemperatur. Das gelbe Tetrapyrrol Cj-YCC-2 inhibierte die Erscheinung von Hydroperoxiden aus einer Radikal-Ketten-Autoxidation von Linolensäure in der Anwesenheit von Luft (siehe Fig. 8). […]

## C=CC1=C(C)C(Cc2[nH]c(C3c4[nH]c(Cc5[nH]c(C=O)c(C)c5CCO)c(C)c4C(=O)C3C(=O)OC)c(CCC(=O)O)c2C)NC1=O (stereo not drawn) [Cj-NCC-1, reference compound]
  IC50: ~100 µM

## C=CC1=C(C)/C(=C\c2[nH]c([C@@H]3c4[nH]c(Cc5[nH]c(C=O)c(C)c5CCO)c(C)c4C(=O)[C@H]3C(=O)OC)c(CCC(=O)O)c2C)NC1=O [Cj-YCC-1, (13^2S,15R,20E) - 3',3^2-Didehydro - 4,5,10,15 - (22,24H) - hexahydro - 13^2 - methoxycarbonyl - 4,5 - seco - 4,5 - dioxo - phytoporphyrinat]
  IC50: ~10 µM

## C=CC1=C(C)/C(=C/c2[nH]c([C@@H]3c4[nH]c(Cc5[nH]c(C=O)c(C)c5CCO)c(C)c4C(=O)[C@H]3C(=O)OC)c(CCC(=O)O)c2C)NC1=O [Cj-YCC-2, (13^2S,15R,20Z) - 3^1,3^2-Didehydro - 4,5,10,15 - (22,24H) - hexahydro - 13^2 - methoxycarbonyl - 4,5 - seco - 4,5 - dioxo - phytoporphyrinat]
In the presence of air, Fig. 8
  Erscheinung von Hydroperoxiden aus einer Radikal-Ketten-Autoxidation von Linolensäure: inhibierte
